Assay results taken from ChEMBL document CHEMBL4665675 (J Med Chem, 2020).
Where a SMILES comes first, the peptide text is derived from it. [ ]: non-standard residue; d: D form. The star is where a group is joined. Cholesteryloxycarbonyl = CC(C)CCC[C@@H](C)[C@H]1CC[C@H]2[C@@H]3CC=C4C[C@@H](OC(=O)*)CC[C@]4(C)[C@H]3CC[C@]12C; PEG3 = NCCOCCOCCOCCC(=O)O; Aib = CC(C)(N)C(=O)O; βAla = NCCC(=O)O

What was measured:
BJAB [1] = test: Cytotoxicity against human BJAB cells; type: functional, cell-based
HBL-100 = test: Cytotoxicity against human HBL100 cells; type: functional, cell-based
K562 = test: Cytotoxicity against human K562 cells; type: functional, cell-based
HaCaT = test: Cytotoxicity against human HaCaT cells; type: functional, cell-based
Jurkat = test: Cytotoxicity against human Jurkat cells; type: functional, cell-based
A549 [2] = test: Cytotoxicity against human A549 cells by MTT assay; type: functional, cell-based
HEK293 [3] = test: Cytotoxicity against HEK293 cells; type: cell-based; conditions: Homo sapiens
L1210 = test: Cytotoxicity against mouse L1210 cells incubated for 24 hrs; type: functional, cell-based; conditions: L1210, 24 h
Bos taurus = species: Bos taurus; test: Inhibition of [3H]colchicine binding to bovine brain tubulin at 5 uM incubated for 10 mins by DEAE-cellulose filter method relative to control
[4] = Inhibition of DNA topoisomerase2 (unknown origin); parameters: species or system Homo sapiens
SK-BR-3 [5] = test: Cytotoxicity against human SK-BR-3 cells assessed as reduction in cell viability incubated for 72 hrs by flow cytometry; type: functional, cell-based; conditions: SK-BR-3, 72 h
SK-BR-3 [6] = test: Cytotoxicity against human SK-BR-3 cells assessed as reduction in cell viability incubated for 72 hrs in presence of trastuzumab-iCME by flow cytometry; type: functional, cell-based; conditions: SK-BR-3, 72 h
KB 3-1 = test: Antiproliferative activity against human KB-31 cells incubated for 96 hrs by spectrophotometric method; type: functional, cell-based; conditions: KB 3-1, 96 h
[7] = Antiproliferative activity against human KB-8511 cells incubated for 96 hrs by spectrophotometric method; type: functional, cell-based; conditions: KB-ChR-8-5-11, 96 h
[8] = Inhibition of porcine tubulin polymerization by UV/visible spectrophotometry; parameters: species or system Sus scrofa
P388 = test: Antiproliferative activity against mouse P388 cells incubated for 72 hrs by Coulter counter method; type: functional, cell-based; conditions: P388, 72 h
MIA PaCa-2 = test: Cytotoxicity against human Mia PaCa-2 cells incubated for 48 hrs by MTT assay; type: functional, cell-based; conditions: MIA PaCa-2, 48 h
BXPC-3 = test: Cytotoxicity against human BxPC-3 cells incubated for 48 hrs by MTT assay; type: functional, cell-based; conditions: BXPC-3, 48 h
A549 [9] = test: Cytotoxicity against human A549 cells incubated for 48 hrs by MTT assay; type: functional, cell-based; conditions: A549, 48 h
PC-3 = test: Cytotoxicity against human PC-3 cells incubated for 48 hrs by MTT assay; type: functional, cell-based; conditions: PC-3, 48 h
HT-29 = test: Cytotoxicity against human HT-29 cells incubated for 48 hrs by MTT assay; type: functional, cell-based; conditions: HT-29, 48 h
[10] = Cytotoxicity against human HGF-1 cells incubated for 48 hrs by MTT assay; type: cell-based; conditions: HGF1, 48 h
HEK293 [11] = test: Cytotoxicity against HEK293 cells incubated for 48 hrs by MTT assay; type: cell-based; conditions: Homo sapiens, HEK293, 48 h
[12] = Cytotoxicity against human BHP-1 cells incubated for 48 hrs by MTT assay; type: cell-based; conditions: BHP1, 48 h
HeLa = test: Cytotoxicity against human HeLa cells after 24 to 72 hrs by Cell Titer Blue assay; type: cell-based
Rattus norvegicus = species: Rattus norvegicus; test: Inhibition of [3H]colchicine binding to rat brain tubulin at 25 uM relative to control
NALM-6 [13] = test: Induction of apoptosis in human Nalm-6 cells at 5 nM incubated for 72 hrs by flow cytometric method relative to control; type: functional
BJAB [14] = test: Induction of apoptosis in human BJAB cells at 5 nM incubated for 72 hrs by flow cytometric method relative to control; type: functional
MCF7 = test: Induction of apoptosis in human MCF7 cells at 3 nM incubated for 72 hrs by flow cytometric method; type: functional
BJAB [15] = test: Antiproliferative activity against human BJAB cells incubated for 24 hrs by cell counting based method; type: functional
NALM-6 [16] = test: Antiproliferative activity against human Nalm-6 cells incubated for 24 hrs by cell counting based method; type: functional; conditions: NALM-6, 24 h

What does the source list for `CCCCCCCCCCCCCCCC(=O)OCc1cn([C@H]2CCc3cc(OC)c(OC)c(OC)c3-c3ccc(OC)c(=O)cc32)nn1`?
IC50 (BJAB [1]): 3.5 nM; IC50 (HBL-100): 3.5 nM; IC50 (K562): 3.5 nM; IC50 (HaCaT): 3.5 nM; IC50 (Jurkat): 3.5 nM

With `COc1cc2c(c(OC)c1OC)-c1ccc(OC)c(=O)cc1[C@@H](NC(=O)CCCCCCC(=O)C1C3CC4CC(C3)CC1C4)CC2` (some centres not stated) as the compound, how does the IC50 (A549 [2]) read?
The IC50 was ≤ 5 nM.

Which IC50 (HEK293 [3]) does the source give for `COc1cc2c(c(OC)c1OC)-c1ccc3[nH]c(C)c(C)c3c1[C@@H](NC(C)=O)CC2` here?
Its IC50 is 2000 nM.

For `CCCCCCCCCCCCCCCCCC(=O)OCc1cn([C@H]2CCc3cc(OC)c(OC)c(OC)c3-c3ccc(OC)c(=O)cc32)nn1`, which IC50 (BJAB [1]) is on record?
Its IC50 is 3.5 nM.

What about the IC50 (HBL-100) of the same compound?
The IC50 was 3.5 nM.

And the IC50 (K562)?
Its IC50 is 3.5 nM.

What about the IC50 (HaCaT) of the same compound?
The IC50 was 3.5 nM.

What about the IC50 (Jurkat) of the same compound?
The IC50 was 3.5 nM.

Which IC50 (A549 [2]) does the source give for `COc1cc2c(c(OC)c1OC)-c1ccc(OC)c(=O)cc1[C@@H](NC(=O)CCCCCC(=O)OC1C3CC4CC(C3)CC1C4)CC2` (some centres not stated) here?
The IC50 was ≤ 5 nM.

For `COc1c2c(cc3c1-c1ccc(OC)c(=O)cc1[C@@H](NC(C)=O)CC3)OCO2`, which IC50 (L1210) is on record?
Its IC50 is 20 nM.

And the inhibition (Bos taurus)?
The inhibition was 54%.

For `CSc1ccc2c(cc1=O)[C@@H](NC(C)=O)CCc1cc(O)c(O)c(O)c1-2`, which IC50 [4] is on record?
Its IC50 is 9000 nM.

Which results are given for `CC(C)CCC[C@@H](C)[C@H]1CC[C@H]2[C@@H]3CC=C4C[C@@H](OC(=O)NCCC(=O)NCCC(=O)N[C@@H](CCC(=O)O)C(=O)N[C@@H](CCC(=O)O)C(=O)NCCOCCOCCOCCC(=O)NCCOCCOCCOCCC(=O)NC(C)(C)C(=O)NC(C)(C)C(=O)NC(C)(C)C(=O)NC(C)(C)C(=O)N[C@@H](Cc5c[nH]c6ccccc56)C(=O)N[C@@H](Cc5ccc(O)cc5)C(=O)N[C@@H](C)C(=O)N[C@@H](Cc5c[nH]c6ccccc56)C(=O)N[C@@H](Cc5ccc(O)cc5)C(=O)N[C@@H](C)C(=O)N[C@@H](Cc5c[nH]c6ccccc56)C(=O)N[C@@H](Cc5ccc(O)cc5)C(=O)N5CCC[C@H]5C(=O)N5CCC[C@H]5C(=O)N[C@H](C(=O)N[C@H](C(N)=O)C(C)C)C(C)C)CC[C@]4(C)[C@H]3CC[C@]12C` ({Cholesteryloxycarbonyl-βAla-βAla}-EE[PEG3][PEG3][Aib][Aib][Aib][Aib]WYAWYAWYPPVV-NH2)?
IC50 (SK-BR-3 [5]): > 10000 nM; IC50 (SK-BR-3 [6]): 0.11 nM

Which results are given for `COc1cc2c(c(OC)c1OC)-c1ccc(OC)c(=O)cc1[C@@H](NC(C)=O)CC2` [COLCHICINE]?
IC50 (KB 3-1): 9 nM; IC50 [7]: 540 nM; IC50 [8]: 3900 nM; IC50 (P388): 29 nM; IC50 (MIA PaCa-2): 42 nM; IC50 (BXPC-3): 42 nM; IC50 (A549 [9]): 42 nM; IC50 (PC-3): 42 nM; IC50 (HT-29): 42 nM; IC50 [10]: 42 nM; IC50 (HEK293 [11]): 42 nM; IC50 [12]: 42 nM; IC50 (HeLa): 58 nM

For `COc1cc2c(c(OC)c1OC)-c1cccc(=O)cc1[C@@H](NC(C)=O)CC2`, which inhibition (Rattus norvegicus) is on record?
The inhibition was 87%.

For `C=C1Cc2cc(OC)c(OC)c(OC)c2-c2ccc(OC)c(=O)cc21`, which Activity (NALM-6 [13]) is on record?
Its Activity is 71%.

What about the Activity (BJAB [14]) of the same compound?
The Activity was 48%.

What about the Activity (MCF7) of the same compound?
Its Activity is 62%.

Which IC50 (BJAB [15]) does the source give for `COc1cc2c(c(OC)c1OC)C1=C(C=C(O)C(=O)CC1)CO[C@@H]2C` here?
The IC50 was 1000 nM.

And the IC50 (NALM-6 [16])?
Its IC50 is 1000 nM.
